Among the data in the METLIN SMRT retention time set (Domingo-Almenara et al. 2019) are RP-LC retention time values, retold here.

The data set in a line: gradient 5% acetonitrile 3 min, to 50% in 2 min, to 85% in 15 min, held 3 min, 100 µL/min. The following applies: column: Zorbax Extend-C18 2.1 x 50 mm; eluents: water / acetonitrile, 0.1% formic acid. In short, it runs like this:
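Pure standards were analyzed in mixtures of ~100 molecules using HPLC coupled to a quadrupole time-of-flight mass spectrometer, in both positive and negative ionization mode. Separation used a Zorbax Extend-C18 column (2.1 × 50 mm, 1.8 μm) at 100 μL/min, with water and acetonitrile each containing 0.1% formic acid. Dead and dwell volumes were 40 μL and 900 μL, and data were collected over 3 months. Retention time was read from computationally picked adduct peaks, each inspected manually.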
In turn, `CCc1noc(NC(C)=O)c1-c1ccc(OC)c(S(=O)(=O)N2CCc3ccccc3C2)c1` gave an RP-LC retention time of 628 s.

Molecule `Cc1nn(C)c(=O)c2cc(S(=O)(=O)NCc3ccccc3)cn12` showed an RP-LC retention time of 776 s.

On to `CCOc1ccc(NC(=O)Cn2nc3cc(C)nc(N4CCCC4)n3c2=O)cc1`, for which the RP-LC retention time stood at 765 s.

`COc1ccc2c(c1)C1(CCN(S(=O)(=O)c3cc(F)cc(F)c3)C1)C(=O)N2C` (centres undefined) showed an RP-LC retention time of 940 s.

In turn, `COc1ccccc1-c1coc2cc(OC(=O)c3cccs3)ccc2c1=O` showed an RP-LC retention time of 992 s.

Turning to `O=C(C1CCN(c2nnc(-c3ccccc3)o2)CC1)N1CCN(c2ccccn2)CC1`, the RP-LC retention time stood at 602 s.

Turning to `COc1ccc2c(n1)Sc1nc3ccccc3nc1N2`, the RP-LC retention time came to 1040 s.

`COc1ccccc1N1CCN(c2cc(SCC(=O)Nc3ccc(C)cc3C)ncn2)CC1` came in with an RP-LC retention time of 1040 s.

The molecule `Cc1cccc(NC(=O)C2CCN(S(=O)(=O)c3cc(C(=O)N4CCOCC4)cs3)CC2)c1C` came in with an RP-LC retention time of 760 s.

In turn, `O=C(NCCc1ccccn1)C1CCc2nc(N3CCOCC3)ncc2C1` (centres undefined) gave an RP-LC retention time of 645 s.

In the case of `CC(C)C(=O)Nc1ccc2c(c1)nc(CN1CCCC1)n2C(C)C`, the RP-LC retention time was determined as 602 s.

Take `CCOc1ccc(CC(=O)Nc2ccc3c(c2)Sc2ncccc2C(=O)N3C)cc1`: the RP-LC retention time was 931 s.

In the case of `CC(C)N1CCN(S(=O)(=O)c2ccc(-c3nnc(C4CC4)o3)o2)CC1`, the RP-LC retention time turned out to be 611 s.

In turn, `C[C@@H](Cc1ccc(OCC(=O)O)cc1)NC[C@@H](O)c1cccc(Cl)c1` had an RP-LC retention time of 704 s.

`CCC1Oc2ccc(S(=O)(=O)N3CCC(C(=O)Nc4ccc(C)cc4C)CC3)cc2NC1=O` (centres undefined) returned an RP-LC retention time of 868 s.

Molecule `O=C(Nc1ccc(Br)cc1)Nc1ccccc1Cl` returned an RP-LC retention time of 1140 s.

`CCSc1nc2ccc(NS(=O)(=O)c3cc(C)ccc3C)cc2s1` returned an RP-LC retention time of 1070 s.

`Cc1ccc(-c2cn3c(CC(=O)N4CCCc5ccccc54)csc3n2)cc1C` returned an RP-LC retention time of 956 s.

On to `Nc1nc(N2CCN(c3ccccc3)CC2)ncc1C(=O)Nc1ccccc1`, for which the RP-LC retention time stood at 784 s.

As for `CSc1ccc(CNC(=O)c2[nH]c3cc(C)sc3c2CN2CCOCC2)cc1`, the RP-LC retention time came out at 709 s.

On to `CN(C)CCNC(=O)CN1C(=O)CN(C(=O)NCc2ccccc2)c2ccccc21`, for which the RP-LC retention time was 606 s.

In turn, `CCN1C(=O)CCc2cc(NS(=O)(=O)Cc3cccc(Cl)c3)ccc21` displayed an RP-LC retention time of 846 s.

`Cc1cc(-c2nnc(-c3ccco3)o2)c(C)n1CC(=O)NCc1ccc(F)cc1`: the RP-LC retention time stood at 849 s.

In turn, `Cc1ccc(S(=O)(=O)NCCSc2ncccn2)cc1` registered an RP-LC retention time of 727 s.

Regarding `CC(C)n1c(CN2CCOCC2)nc2cc(NC(=O)c3ccco3)ccc21`, the RP-LC retention time worked out at 619 s.

As for `CCC(=O)N1CCc2sc(S(=O)(=O)NCc3ccc4c(c3)OCO4)cc2C1`, the RP-LC retention time came out at 773 s.

For the molecule `CCCn1cc(S(=O)(=O)Nc2cccc(OC)c2)c2cccnc21`, the RP-LC retention time is 840 s.

The molecule `COc1ccc(-c2cc(N3CCN(C(=O)Nc4cc(OC)cc(OC)c4)CC3)ncn2)cc1` showed an RP-LC retention time of 672 s.

For `CCOC(=O)C1C(=O)C=C(c2cccs2)CC1c1ccc(F)cc1` (centres undefined), the RP-LC retention time was determined as 1110 s.

Consider `CCOC(=O)c1nc(NCC2CCN(Cc3ccccc3Cl)CC2)c2ccccc2n1`, for which the RP-LC retention time was 1060 s.

In turn, `CSc1ccc(CNC(=O)Cn2c(C)cc(C)c(C#N)c2=O)cc1` gave an RP-LC retention time of 698 s.

As to `CC(=O)OC[C@@]1(O)C[C@@]23CC[C@@H]4c5ccoc5C=C[C@@]4(C)[C@@H]2CC[C@@H]1C3`, the RP-LC retention time came out at 715 s.

`O=S(=O)(c1ccc(Cl)cc1)N1CCC(c2noc(-c3ccccc3)n2)CC1`: the RP-LC retention time came out at 1170 s.

Consider `COC(=O)C1=CN(C2CC2)c2cc(N3CCC(C)CC3)c(F)cc2S1(=O)=O`, for which the RP-LC retention time was determined as 1010 s.

In turn, `COc1ccc(F)cc1S(=O)(=O)N1C[C@@H]2C[C@H]1C[C@@H]2NC(=O)c1cccs1` showed an RP-LC retention time of 834 s.

As for `Cc1oc(C(C)C)nc1C(=O)NCc1cccs1`, the RP-LC retention time turned out to be 897 s.

Consider `Cn1nc(-c2ccccc2F)c2cc(C(=O)N3CCN(c4ccccn4)CC3)sc21`, for which the RP-LC retention time was 654 s.

For `Cc1ccc(-c2noc(Cn3nc(-c4ccccc4F)ccc3=O)n2)cc1`, the RP-LC retention time was determined as 1050 s.

`CCC(=O)N1CCc2cc(N3CC(C(=O)Nc4cccc(C)c4)CC3=O)ccc21` (centres undefined) had an RP-LC retention time of 693 s.

With `Cc1[nH]c(C(=O)N2CCN(c3cccc(Cl)c3)CC2)c(C)c1S(=O)(=O)N1CCC(C)CC1`, the RP-LC retention time was 1090 s.

In turn, `COc1ccccc1-c1noc(C2CCCN2C(=O)Nc2ccccc2C)n1` (centres undefined) came in with an RP-LC retention time of 827 s.

Turning to `COc1cc(NS(=O)(=O)c2ccc(Nc3nc(-c4ccc(C)cc4)cs3)cc2)nc(OC)n1`, the RP-LC retention time was 1100 s.

The molecule `CCn1nccc1-c1cccc(-c2noc(-c3ccc(C#N)cc3)n2)c1` registered an RP-LC retention time of 1140 s.

`O=C1CCc2cc(S(=O)(=O)NCCc3ccccc3)cc3c2N1CCC3` returned an RP-LC retention time of 840 s.

`COc1ccc(NS(=O)(=O)/C=C/c2ccccc2)cc1N1CCCC1=O` displayed an RP-LC retention time of 721 s.

Turning to `Cc1ccc(NC(=O)N2CCC(n3cnnc3C3CC3)C2)cc1Cl` (centres undefined), the RP-LC retention time turned out to be 672 s.

Consider `Cc1ccc(NC(=O)C2CCCN(c3ncnc4c3nc3n4CCCCC3)C2)cc1C` (centres undefined), for which the RP-LC retention time was found to be 870 s.

Turning to `O=C(NCC#CCN1CCc2ccccc2C1)c1c(F)cccc1Cl`, the RP-LC retention time worked out at 565 s.

As for `O=C(Nc1ccc2c(c1)OCO2)C1COCC(=O)N1Cc1ccccc1` (centres undefined), the RP-LC retention time was determined as 688 s.

`COc1ccc(-c2cc(=O)n(CC(=O)Nc3nc4c(s3)CCCC4)cn2)cc1`: the RP-LC retention time turned out to be 762 s.

Consider `COc1ccc(-c2cc(N3CCN(C(=O)Cc4ccc(Br)cc4)CC3)n[nH]2)cc1`, for which the RP-LC retention time is 842 s.

Molecule `COc1cccc(S(=O)(=O)N2CCC(c3noc(-c4ccccc4)n3)CC2)c1` yielded an RP-LC retention time of 1120 s.

As to `CC(C)n1cc(C2=CCN(C(=O)NC3CCCC3)CC2)c2cccnc21`, the RP-LC retention time is 878 s.

As for `COc1ccc(CN(CCC2(C(C)C)CCOC(C)(C)C2)C(C)=O)cc1` (centres undefined), the RP-LC retention time was 987 s.

`Cc1nc2cc(-c3noc(C4CC(=O)N(c5ccccc5)C4)n3)ccc2n(C2CCCC2)c1=O` (centres undefined): the RP-LC retention time turned out to be 1030 s.

In the case of `Cc1cc(-c2c(C)sc(C)c2S(=O)(=O)Nc2ccc(C)c(Cl)c2)n[nH]1`, the RP-LC retention time worked out at 1100 s.

In the case of `Cc1ccc(NC(=O)CSc2nc(N3CCCCC3)nc3ccccc23)cc1F`, the RP-LC retention time stood at 789 s.

The molecule `COc1ccccc1NC(=O)CN1c2ccc(F)cc2-c2ccccc2S1(=O)=O` registered an RP-LC retention time of 1000 s.

Turning to `Cc1cccc(C(=O)NC2CCN(c3cc(-c4cccs4)[nH]n3)C2)c1` (centres undefined), the RP-LC retention time was 741 s.

The molecule `CCc1ccc(NC(=O)Cn2nc3c(N(C)C4CCCCC4)nccn3c2=O)cc1` displayed an RP-LC retention time of 823 s.

`CCOC(=O)c1cc(S(=O)(=O)N2CCN(c3cccc(C)c3)C(C)C2)c(C)n1C` (centres undefined) came in with an RP-LC retention time of 1090 s.

Molecule `CCCC(NC(=O)C1CCCN(c2nc3c(s2)c(C)nn3-c2ccc(C)cc2)C1)c1cccs1` (centres undefined) came in with an RP-LC retention time of 1300 s.

For `Cc1cc(C)cc(NC(=O)Cn2cc(C(=O)N3CCCC3)c(=O)c3ccc(C)nc32)c1`, the RP-LC retention time came out at 758 s.

`CC(=O)NCc1csc(C2CCCN(C(=O)c3cccn3C)C2)n1` (centres undefined) came in with an RP-LC retention time of 612 s.

In turn, `CCCNC(=O)N1c2ccccc2NC2=C(C(=O)CC(c3ccco3)C2)C1c1ccc(OC)cc1` (centres undefined) showed an RP-LC retention time of 805 s.

Molecule `Cn1nc(C(=O)N2CCOCC2)c2c1CCN(C(=O)Nc1cccc(Br)c1)C2` registered an RP-LC retention time of 726 s.

In the case of `COc1cc(OC)cc(-c2nc(-c3cn(Cc4cccc(F)c4)nn3)no2)c1`, the RP-LC retention time amounted to 1030 s.

For `Cc1ccc(C(C)NC(=O)c2cn(-c3ccc(NC(=O)CC(C)C)cn3)cn2)cc1` (centres undefined), the RP-LC retention time was 872 s.

For the molecule `COC(=O)c1cncn1C(C)c1ccccc1` (centres undefined), the RP-LC retention time worked out at 737 s.

`Cc1sc2cc(C(=O)N3CCN(c4ccc(F)cc4)CC3)[nH]c2c1CN1CCOCC1` had an RP-LC retention time of 690 s.

`CC(=O)c1cccc(NC(=O)Cn2cc3c(n2)CCCCC3)c1` registered an RP-LC retention time of 821 s.

In the case of `Cc1noc(C)c1C(=O)N1CC(c2nc(CCOC3CCCC3)no2)C1`, the RP-LC retention time stood at 788 s.

For the molecule `O=C(CCc1ccccc1)Nc1cnn(-c2ncncc2N2CCOCC2)c1`, the RP-LC retention time turned out to be 649 s.

As for `CC(=O)Nc1cc([N+](=O)[O-])c(N(C)S(=O)(=O)c2ccccc2)c2ccccc12`, the RP-LC retention time is 781 s.

In turn, `Cc1ccc(NC(=O)N2CCN(c3cnn4cnnc4c3)CC2)cc1` returned an RP-LC retention time of 627 s.

`COc1cccc(C(=O)N2CCC3(CC2)NC(=O)c2cccc(Cl)c2N3)c1` came in with an RP-LC retention time of 749 s.

In turn, `COCc1nc2cccnc2n1C1CCN(C(=O)Nc2cccc(Br)c2)CC1` came in with an RP-LC retention time of 768 s.

With `CCNC(=O)C1CCc2sc(C(=O)N3CCCCC3)cc2C1` (centres undefined), the RP-LC retention time is 694 s.

On to `O=C(NCc1cccs1)C1CCCN(C(=O)C2Sc3ccccc3NC2=O)C1` (centres undefined), for which the RP-LC retention time came to 725 s.
